Patent publication US4797399A, “Piperazine compounds and antithrombotic pharmaceutical composition comprising the same” (Fujisawa Pharmaceutical Co., Ltd., priority 1986, dated 1989)
Where two headings read alike, the source gives them in different places.

Experiments:
carrageenin foot edema = test: Carrageenin foot edema; assay type: in vivo, Sprague-Dawley rats; settings: 320 mg/kg oral, 60 min before phlogogen, edema at 3 hours; * P < 0.05
Description: Male Sprague-Dawley rats weighing about 180 g were used in groups of five. Paw edema was induced by subplantar injection of 1% carrageenin (0.1 ml/rat) into the right hind paw in carrageenin foot edema. The test compound was suspended in methylcellulose and administered orally 60 minutes before phlogogen. Paw volume was measured with plethysmometer (Ugo Basil Co., Ltd.) by water displacement immersing the paw to the lateral malleolus. The difference of paw volume before and 3 hours after the phlogogen was designated as edema volume. The data analyzed statistically by student's t-test.

[1] = system: platelet aggregation (collagen); test: Platelet aggregation ex vivo, collagen-induced, after oral administration to rats; assay type: in vivo, Sprague-Dawley rats; settings: 1 hour after dosing, collagen 5.0 μg/ml
Description: Male Sprague-Dawley rats weighing about 250 g were used after overnight fasting. One hour after oral administration of test compound or vehicle of test compound (control), blood was collected into a tube containing 0.1 vol. of 3.8% sodium citrate. To the 0.45 ml of blood, 0.05 ml of collagen (final concentration 5.0 μg/ml) was added and then incubated for 5 min. at 37° C. under shaking.
The reaction was terminated by addition of 1 ml of 10 mM phosphate buffered saline (pH 7.4) containing 11.5 mM EDTA and 1% formalin. The reaction mixture was centrifuged at 70×g for 5 min. and platelet count of upper phase was measured by Technicon Auto Analizer.
Platelet aggregation was calculated according to the following formula: [formula] A. Platelet count after addition of vehicle of collagen B. Platelet count after addition of collagen
Inhibition of the test compound was calculated according to the following formula; [formula] C. Platelet aggregation (%) of control D. Platelet aggregation (%) of Test compound

systemic anaphylaxis = test: Systemic anaphylaxis (passive sensitization with rabbit anti-ovalbumin serum, ovalbumin aerosol); assay type: in vivo, Hartley guinea pigs; settings: 30 min before antigen aerosol
Description: Male Hartley guinea pigs (300-400 g, n=5) were passively sensitized with i.v. injection of rabbit anti-ovalbumin serum. 24 Hours later, test compound was administered orally. 30 Min. after administration of test compound, sensitized animals were placed for 2 min. in a chamber filled with antigen aerosol (ovalbumin) by a conventional nebulizer. Survived animals were regarded as being protected from systemic anaphylaxis.

[2] = system: platelet aggregation (ADP); test: Platelet aggregation in vitro, ADP-induced (rabbit platelet rich plasma); assay type: cell-based; settings: Oryctolagus cuniculus
Description: (§1) Platelet rich plasma (PRP) which contains 6-7×10^8 platelets/ml was prepared from rabbit blood. To the 200 μl of PRP, 5 μl of calcium chloride (1 mM) and 50 μl of 25 mM Tris-acetate solution (pH 7.4) containing 120 mM NaCl or test compound were added successively, and then stirred for 2 min. at 37° C. […] Aggregation was measured by using an aggregometer. (NKK HEMA-TRACER 1).

[3] = system: platelet aggregation (collagen); test: Platelet aggregation in vitro, collagen-induced (rabbit platelet rich plasma); assay type: cell-based; settings: Oryctolagus cuniculus
Description: as §1

[4] = system: acetic acid-induced writhing; test: Acetic acid-induced writhing syndrome; assay type: in vivo, Scl:ddy strain mice; settings: 32 mg/kg oral, 60 min before 0.6% acetic acid i.p., 3-13 min count; * P < 0.01
Description: Male Scl:ddy strain mice aged 6 weeks were used in groups of 10. The test compound was suspended in methylcellulose and administered orally. After 60 min., 20 ml/kg of 0.6% acetic acid solution was administered i.p. and writhing episodes between 3 and 13 min. after acetic acid injection were counted. The data was analyzed statistically by student's t-test.

| Compound | Inhibition (%) of carrageenin foot edema (carrageenin foot edema) [%] | Inhibition (%) of platelet aggregation ex vivo ([1]; 10 mg/kg oral) [%] | Inhibition (%) of platelet aggregation ex vivo ([1]; 32 mg/kg oral) [%] | Inhibition (%) of platelet aggregation ex vivo ([1]; 100 mg/kg oral) [%] | Survival (%) (systemic anaphylaxis; 10 mg/kg oral) | Survival (%) (systemic anaphylaxis; 100 mg/kg oral) | IC50 ([2]; inducer ADP (2.5 μM), rabbit PRP, pH 7.4, 37° C, read-out: ID50 ADP (dose required to inhibit platelet aggregation by 50%)) [µM] | IC50 ([3]; inducer collagen (2.5 μg/ml), rabbit PRP, pH 7.4, 37° C, read-out: ID50 Collagen (dose required to inhibit platelet aggregation by 50%)) [µM] | Inhibition (%) of acetic acid-induced writhing [4] [%] | IC50 ([2]; pH 7.4, read-out: ID50 ADP (dose required to inhibit platelet aggregation by 50%)) [µM] | IC50 ([3]; pH 7.4, read-out: ID50 Collagen (dose required to inhibit platelet aggregation by 50%)) [µM] |
| --- | --- | --- | --- | --- | --- | --- | --- | --- | --- | --- | --- |
| Cl.NN1CCN(C(=O)Cn2c(=O)sc3ccc(Cl)cc32)CC1 [Example 5, 5-chloro-3-[(4-amino-1-piperazinyl)carbonylmethyl]-2-benzothiazolinone hydrochloride] | 40.0 | 2 | 67 | 100 | 20 | 100 | 14 | 14 | 32.8 |  |  |
| CC(=O)Oc1ccccc1C(=O)O [Aspirin, reference compound] |  |  |  |  |  |  |  |  |  | 3200 | 31 |
